# Measured values taken from ChEMBL document CHEMBL3739319, “Identification of a novel class of autotaxin inhibitors through cross-screening” (Medchemcomm, 2015).
# pKi: −log10 of the molar value. Calls of active or inactive are those of the source. The rule behind the calls is not given here.
# Legend:
# [1] = Kinetic solubility of compound in phosphate buffer at pH 7.4 for 1 hr; type: physicochemical; settings: read-out: Kinetic_solubility
# [2] = system: A2780; test: Cytotoxicity against human A2780 cells at 30 uM after 42 hrs by alamar blue assay; type: cell-based; settings: a2780, 42 h
# [3] = Lipophilicity, log D of compound at pH 7.4 by RP-HPLC analysis; type: physicochemical; settings: buffer
# [4] = Permeability of compound across artificial membrane after 3 hrs by LC-MS analysis; type: ADME; settings: PAMPA; read-out: permeability
# [5] = target: T1, Autotaxin (Homo sapiens, UniProt Q13822); test: Inhibition of ATX (unknown origin) using bis-(p-nitrophenyl)phosphate as substrate
# [6] = system: PC-3; test: Inhibition of LPA-induced cell proliferation of human PC3 cells at 10 uM after 18 hrs by [3H]-thymidine incorporation assay; type: functional, cell-based
# [7] = target: T1, Autotaxin; test: Inhibition of ATX (unknown origin) using bis-(p-nitrophenyl)phosphate as substrate at 30 uM
# [8] = target: Lysophosphatidic acid receptor 1 (Homo sapiens) (UniProt Q92633); test: Antagonist activity at LPA1 receptor (unknown origin) expressed in CHO-K1 cells assessed as LPA-induced receptor activity measured as remaining receptor activity at 10 uM compound incubated for 1 hr followed by addition of LPA for 3 hrs by luminometry; type: cell-based
# Lysophosphatidic acid receptor 1 (Homo sapiens), sequence (Q92633 whole entry): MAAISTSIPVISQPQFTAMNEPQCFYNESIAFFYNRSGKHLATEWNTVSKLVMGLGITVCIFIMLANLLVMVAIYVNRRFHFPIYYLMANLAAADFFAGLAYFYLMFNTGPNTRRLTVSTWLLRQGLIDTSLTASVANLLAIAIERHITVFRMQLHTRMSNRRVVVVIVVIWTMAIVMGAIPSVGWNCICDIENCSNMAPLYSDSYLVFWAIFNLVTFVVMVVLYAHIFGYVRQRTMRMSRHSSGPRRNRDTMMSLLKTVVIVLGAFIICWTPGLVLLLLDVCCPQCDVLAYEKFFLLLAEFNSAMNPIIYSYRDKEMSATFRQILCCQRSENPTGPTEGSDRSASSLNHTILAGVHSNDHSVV
Compound,solubility kinetic at 1 h [1],logD [3],Papp at 3 h [4],pKi [5],inhibition [7],Activity [8],Activity [2],inhibition [6]
CC(C)N1C(=O)CN(Cc2ccc(-c3ccc(CC(=O)O)cc3)cc2)C1=O,190 µg/mL,1.1,0.3 ×10⁻⁶ cm/s,5.92,,,,
CC(C)N1C(=O)CN(Cc2ccc(Br)cn2)C1=O,,,,> 5.30,,,,
O=C(O)Cc1ccccc1-c1cccc(NC(=O)OCc2ccccc2)c1,287 µg/mL,3.06,14 ×10⁻⁶ cm/s,5.40,,,,
O=C(O)Cc1ccc(-c2ccc(CN3CC(=O)N(c4ccccc4)C3=O)cc2)cc1,174 µg/mL,2.18,0.3 ×10⁻⁶ cm/s,5.44,,,,
CC(C)N1C(=O)CN(Cc2ccc(-c3ccc(CC(=O)O)cc3)cn2)C1=O,108 µg/mL,-1.38,< 1 ×10⁻⁶ cm/s,5.40,,,,
Brc1ccc(NC2CCOCC2)cc1,,,,> 5.30,,,,
O=C(Cc1ccc(-c2ccc3cc[nH]c3c2)cc1)OCc1ccccc1,110 µg/mL,7.43,51 ×10⁻⁶ cm/s,< 4.52,,,,
O=C1CN(Cc2ccc(-c3ccccc3)cc2)C(=O)N1c1ccccc1,7.5 µg/mL,6.24,54 ×10⁻⁶ cm/s,5.89,,,Non-toxic,Active
O=C(O)Cc1ccc(-c2ccc(CN3CC(=O)N(C4CCCCC4)C3=O)cc2)cc1,186 µg/mL,1.12,2.2 ×10⁻⁶ cm/s,5.74,,,,
O=C1CN(Cc2ccc(Br)cc2)C(=O)N1C1CCCCC1,,,,> 5.30,,,,
O=C(Nc1cccc(-c2ccccc2)c1)OCc1ccccc1,5 µg/mL,7.52,45 ×10⁻⁶ cm/s,< 4.52,,,,

# Further lines, with some results ahead:
solubility kinetic at 1 h [1],logD [3],Papp at 3 h [4],pKi [5],inhibition [7],Activity [8],Compound,Activity [2],inhibition [6]
198 µg/mL,3.19,7.3 ×10⁻⁶ cm/s,5.35,,,O=C(O)Cc1ccc(-c2cccc(NC(=O)OCc3ccccc3)c2)cc1,Non-toxic,Active
212 µg/mL,3.13,2.3 ×10⁻⁶ cm/s,< 4.52,,,O=C(O)Cc1ccc(-c2ccc(N(C(=O)OCc3ccccc3)C3CCOCC3)cc2)cc1,,
,,,> 5.30,,,COC(=O)CNCc1ccc(Br)cc1,,
195 µg/mL,1.5,1.6 ×10⁻⁶ cm/s,< 4.52,,,O=C1CN(Cc2ccc(-c3ccc(C4(C(=O)O)CC4)cc3)cc2)C(=O)N1c1ccccc1,,
,,,,< 20%,11%,Cc1noc(-c2ccc(-c3ccc(CC(=O)O)cc3)cc2)c1NC(=O)O[C@H](C)c1ccccc1,,
,,,,< 20%,16%,Cc1noc(-c2ccc(CSCCC(=O)O)cc2)c1NC(=O)OC(C)c1ccccc1Cl (stereo unspecified),,
93 µg/mL,-0.35,< 3 ×10⁻⁶ cm/s,5.41,,,O=C(O)Cc1ccc(-c2ccc(CN3CC(=O)N(C4CCCCC4)C3=O)nc2)cc1,,
70 µg/mL,7.25,44.5 ×10⁻⁶ cm/s,5.96,,,O=C(Cc1ccc(-c2ccc3[nH]ccc3c2)cc1)OCc1ccccc1,,
,,,> 5.30,,,COC(=O)CNCc1ccc(Br)cn1,,
221 µg/mL,3.1,6.4 ×10⁻⁶ cm/s,5.46,,,O=C(O)Cc1cccc(-c2cccc(NC(=O)OCc3ccccc3)c2)c1,,
,,,> 5.30,,,O=C1CN(Cc2ccc(Br)cc2)C(=O)N1c1ccccc1,,
189 µg/mL,4.92,15 ×10⁻⁶ cm/s,5.70,,,O=C(O)Cc1ccc(-c2ccc(N(C(=O)OCc3ccccc3)C3CCCCC3)cc2)cc1,Non-toxic,Active
